Measurements: patent US20250066290A1, “DHODH INHIBITORS CONTAINING A CARBOXYLIC ACID BIOISOSTERE” (IMMUNIC AG, priority 2021, published 2025)
pEC50, pIC50: −log10 of the molar value. Like-named read-outs stand apart in the source and are kept apart here.

How the values were obtained:
[1] = target: N-terminally truncated recombinant hDHODH enzyme (Homo sapiens, UniProt Q02127); test: biochemical; assay type: biochemical
Method: Briefly, the hDHODH concentration was adjusted in a way that an average slope of approximately 0.2 AU/min served as the positive control (e.g. without inhibitor). The standard assay mixture contained 60 μM 2,6-dichloroindophenol, 50 μM decylubiquinone and 100 μM dihydroorotate. The hDHODH enzyme with or without at least six different concentrations of the compounds was added and measurements were performed in 50 mM TrisHCl, 150 mM KCl and 0.1% Triton X-100 at pH 8.0 and at 30° C. The reaction was started by adding dihydroorotate and measuring the absorption at 600 nm for 2 min. For the determination of the IC50 values, each data point was recorded in triplicate. […].

[2] = test system: SARS-CoV-2; test: SARS-CoV-2 viral replication (YFP) assay; assay type: cell-based; settings: Severe acute respiratory syndrome coronavirus 2, read-out: EC50 range
[3] = human DHODH assay, read-out: IC50 range

N-terminally truncated recombinant hDHODH enzyme, sequence (Q02127 whole entry, looked up, the tested form may be a part): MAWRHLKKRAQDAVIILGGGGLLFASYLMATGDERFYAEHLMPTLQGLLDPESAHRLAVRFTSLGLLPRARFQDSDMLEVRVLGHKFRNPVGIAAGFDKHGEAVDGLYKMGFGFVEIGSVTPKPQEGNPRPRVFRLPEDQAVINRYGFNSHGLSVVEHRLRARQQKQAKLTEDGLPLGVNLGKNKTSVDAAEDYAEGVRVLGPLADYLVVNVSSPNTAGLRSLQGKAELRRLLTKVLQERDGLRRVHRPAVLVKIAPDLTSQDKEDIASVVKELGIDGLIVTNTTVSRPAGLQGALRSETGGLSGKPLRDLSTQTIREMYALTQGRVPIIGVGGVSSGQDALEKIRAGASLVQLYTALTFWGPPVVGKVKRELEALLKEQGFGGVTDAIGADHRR

SMILES | pIC50 [1, 3] | pIC50 [1] | further results
[2H]C([2H])([2H])Oc1cccc(-c2ccc(NC(=O)C3=C(C(=O)NOCCO)CCC3)c(F)c2)c1 [5/7] | < 5.00 |  | 
[2H]C([2H])([2H])ONC(=O)C1=C(C(=O)Nc2c(F)c(F)c(-c3ccccc3OC([2H])([2H])[2H])c(F)c2F)COC1 [5/10] | > 7.00 |  | 
[2H]C([2H])([2H])Oc1cccc(C23CCC(NC(=O)C4=C(C(=O)NOC)CCC4)(CC2)CC3)c1 [4/24] | < 5.00 |  | 
[2H]C([2H])([2H])Oc1cccc(-c2c(F)c(F)c(NC(=O)C3=C(C(=O)NS(C)(=O)=O)COC3)c(F)c2F)c1 [1/10] |  | 6.00 to 7.00 | 
[2H]c1c([2H])c(-c2cccc(OC([2H])([2H])[2H])c2)c([2H])c(C([2H])([2H])[2H])c1NC(=O)C1=C(C(=O)NS(C)(=O)=O)CCC1 [1/8] |  | 5.00 to 6.00 | 
[2H]C([2H])([2H])Oc1cccc(-c2ccc(NC(=O)C3=C(C(=O)NOC)CCC3)c(F)c2)c1 [5/8] |  | 5.00 to 6.00 | 
[2H]C([2H])([2H])ONC(=O)C1=C(C(=O)Nc2c(F)c(F)c(-c3cccc(OC([2H])(C([2H])([2H])[2H])C([2H])([2H])[2H])c3)c(F)c2F)COC1 [5/15] | > 7.00 |  | 
[2H]C([2H])([2H])Oc1cccc(-c2ccc(NC(=O)C3=C(C(=O)NS(C)(=O)=O)CCC3)c(F)c2)c1 [1/11] |  | 6.00 to 7.00 | 
[2H]C([2H])([2H])Oc1cccc(-c2c(F)c(F)c(NC(=O)c3cc(F)sc3C(=O)NOC)c(F)c2F)c1 [16/2] | > 7.00 |  | 
[2H]C([2H])([2H])Oc1cccc(-c2cc(F)c(N(CCO)C(=O)C3=C(C(=O)NOC)CCC3)c(F)c2)c1 [Example 15, N1-(3,5-Difluoro-3′-(methoxy-d3)-[1,1′-biphenyl]-4-yl)-N1-(2-hydroxyethyl)-N2-methoxy-cyclopent-1-ene-1,2-dicarboxamide] | < 5.00 |  | 
[2H]C([2H])([2H])ONC(=O)C1=C(C(=O)Nc2c(F)cc(-c3cccc(OC([2H])([2H])[2H])c3)cc2F)CCC1 [4/4] |  |  | pEC50 [2]: > 5.00
[2H]C([2H])([2H])Oc1cccc(-c2cc(F)c(N(CC(=O)OC)C(=O)C3=C(C(=O)NOC)CCC3)c(F)c2)c1 [Example 14, Methyl N-(3,5-difluoro-3′-(methoxy-d3)-[1,1′-biphenyl]-4-yl)-N-(2-(methoxy-carbamoyl)cyclopent-1-ene-1-carbonyl)glycinate] |  | 5.00 to 6.00 | 
[2H]C([2H])([2H])Oc1cccc(-c2c(F)c(F)c(NC(=O)c3ncsc3C(=O)NOC)c(F)c2F)c1 [Example 16-1, N5-methoxy-N4-(2,3,5,6-tetrafluoro-3′-(methoxy-d3)-[1,1′-biphenyl]-4-yl)thiazole-4,5-dicarboxamide] | > 7.00 |  | 
CONC(=O)C1=C(C(=O)Nc2ccc(-c3cccc(OC)c3)cc2F)CCC1 [Example 4/33] |  | 5.00 to 6.00 | pIC50 ([1]; matched pair comparison, read-out: DHODH IC50): 5.69
[2H]C([2H])([2H])Oc1cccc(-c2c(F)c(F)c(NC(=O)c3scnc3C(=O)NOC)c(F)c2F)c1 [Example 16-2, N4-methoxy-N5-(2,3,5,6-tetrafluoro-3′-(methoxy-d3)-[1,1′-biphenyl]-4-yl)thiazole-4,5-dicarboxamide] |  | 6.00 to 7.00 | 
[2H]C([2H])([2H])Oc1ccccc1-c1c(F)c(F)c(NC(=O)C2=C(C(=O)NS(C)(=O)=O)CCC2)c(F)c1F [1/9] | > 7.00 |  | 
[2H]C([2H])([2H])Oc1ccccc1-c1c(F)c(F)c(NC(=O)C2=C(C(=O)NOC)COC2)c(F)c1F [5/11] | > 7.00 |  | 
[2H]C([2H])([2H])Oc1cccc(-c2cc(F)c(NC(=O)C3=C(C(=O)NC#N)CCC3)c(F)c2)c1 [4/15] |  |  | pEC50 [2]: 4.60 to 5.00
[2H]C([2H])([2H])Oc1cccc(-c2c(F)c(F)c(NC(=O)c3sc(F)cc3C(=O)NOC)c(F)c2F)c1 [16/3] | > 7.00 |  | 
[2H]C([2H])([2H])ONC(=O)C1=C(C(=O)Nc2c(F)c(F)c(-c3cc(F)cc(OC([2H])([2H])[2H])c3)c(F)c2F)COC1 [5/16] | > 7.00 |  | 
[2H]C([2H])([2H])Oc1cccc(-c2c(F)c(F)c(NC(=O)c3cscc3C(=O)NS(C)(=O)=O)c(F)c2F)c1 [1/14] |  |  | pEC50 [2]: < 4.30
[2H]C([2H])([2H])Oc1cccc(-c2ccc(NC(=O)C3=C(C(=O)NOC)CCC3)n3ccnc23)c1 [4/8] | < 5.00 |  | 
